“And” between values parts separate entries of the source, which are not always exact repeats. Equal entries are not always repeated.
Tests used:
[1] = system: individuals; assay: Psychostimulant effect: self-rated wakefulness/alertness before and one hour after administration (Example 1); assay type: in vivo, human; conditions: scale of 1 to 10 (10 greatest), one value per subject, average of three days, 100 mg twice daily as 40% Coleus forskohli extract capsules
Protocol: The forskolin was administered one hour after waking and one hour before bedtime. Subjects were asked to evaluate their level of wakefulness/alertness on a scale of 1 to 10 (10 being the greatest) both before administration and one hour after administration. […] All of the subjects perceived an increase in their level of wakefulness/alertness both in the morning and in the evening. These times were chosen due to the fact that most people have a greater degree of sleepiness or a greater degree of having problems with mental alertness during these times of the day.

[2] = system: overweight individuals who claimed to have a problem controlling their appetite; assay: Appetite suppression: self-rated level of appetite before and after administration (Example 2); assay type: in vivo, human
Protocol: The forskolin was administered three times per day for five days. Subjects were asked to evaluate the level of their appetite from a scale of 1 to 10 (10 being the greatest). […] Some of the subjects even reported that they felt no desire to eat within 30 minutes after administration even though before administration they felt “extremely hungry”.

[3] = system: Test subjects; assay: Experimenting with higher daily dosages: psychostimulant effect in test subjects; assay type: in vivo, human
Protocol: While experimenting with forskolin in much higher daily dosages, the inventors discovered new and as yet undiscovered uses for forskolin and Coleus forskohli and its extracts. The novel effects became quite evident and noticeable upon administering 150 mg per day of forskolin in the form of a 20% Coleus forskohli extract. […] The dosages of forskolin that precipitate the best psychostimlant properties seem to be above 100 mg but can be below this level for some highly sensitive people.

[4] = system: humans; assay: Test of forskolin as anorectic agent in humans; set-up: species or system human; conditions: in vivo
Protocol: Because nearly all psychostimulants have been or are being used as extremely effective appetite suppressants, the inventors decided to test the hypothesis that forskolin would be an effective anorectic agent. […] This anorectic effect is dose dependent and works increasingly until the dosage of 500 mg per day of forskolin. Most tested individuals noticed the appetite suppression effects above 75 mg per day of forskolin; however, a few individuals noticed slight effects down to 30 mg per day.

[5] = scale of 1 to 10 (10 greatest), after dose, one value per subject, average of five days, 100 mg sixty minutes before meals, three times per day, 40% extract capsules
[6] = scale of 1 to 10 (10 greatest), before dose, one value per subject, average of five days, 100 mg sixty minutes before meals, three times per day, 40% extract capsules

C=C[C@@]1(C)CC(=O)[C@]2(O)[C@@]3(C)[C@@H](O)CCC(C)(C)[C@@H]3[C@H](O)[C@H](OC(C)=O)[C@@]2(C)O1 [forskolin, Forskolin]
MBA: level of wakefulness/alertness, morning, before administration ([1]; baseline before dose): 3 (2×) and 2 and 7 (2×) | EBA: level of wakefulness/alertness, evening, before administration ([1]; before evening dose): 6 (2×) and 5 and 7 (2×) | EAA: level of wakefulness/alertness, evening, after administration ([1]; one hour after administration): 7 and 9 and 5 and 10 and 8 | MAA: level of wakefulness/alertness, morning, after administration ([1]; one hour after administration): 5 (2×) and 7 and 8 and 10 | AB: level of appetite, Breakfast, After Administration [2, 5]: 5 and 3 and 4 | AD: level of appetite, Dinner, After Administration [2, 5]: 8 and 3 and 5 | AL: level of appetite, Lunch, After Administration [2, 5]: 7 and 3 and 5 | BB: level of appetite, Breakfast, Before Administration [2, 6]: 6 and 8 and 4 | BD: level of appetite, Dinner, Before Administration [2, 6]: 9 and 10 and 7 | BL: level of appetite, Lunch, Before Administration [2, 6]: 9 and 10 and 8 | time after administration within which some subjects felt no desire to eat ([2]; some of the subjects, "extremely hungry" before administration): ≤ 30 min | dosages that precipitate the best psychostimulant properties ([3]; can be below this level for some highly sensitive people): above 100 mg | untoward central nervous system stimulating effects (jitteriness, nervousness, increased blood pressure, heart rate or respiratory rate) ([3]; human, in vivo): did not cause any untoward central nervous system stimulating effects | dosage above which most tested individuals noticed the appetite suppression effects [4]: above 75 mg per day | dosage down to which a few individuals noticed slight appetite suppression effects [4]: ≥ 30 mg per day | dosage until which the dose dependent anorectic effect works increasingly [4]: ≤ 500 mg per day

Source: US20050070601A1, “Psychostimulant Effects of Forskolin Including Anorexia” (CREATIVE COMPOUNDS, LLC, priority 2003, published 2005)
